Where “and” joins values, the source holds several entries; their conditions need not be identical. Equal values may be shown once. Values belong to the compound of their own block, whether it stands above or below them.
Assays:
Format in all cases: physicochemical
[1] = pH controlled synthesis, free Gd versus synthesis time
Experimental: Here, Example 1A is modified by the addition of gadolinim oxide in its entirety at first and immediately after the introduction of the DOTA, and this procedure is used to produce batch A of Gd-DOTA. Batch B is produced using the following modified procedure.
• 1. Heat reactor to 95° C. • 2. Charge water with all of gadolinium oxide • 3. Stir (stir unless otherwise indicated, nominal rate 300 rpm) until the solution is clear • 4. Add sufficient DOTA to obtain a pH of 4 • 5. When pH is >5 charge sufficient DOTA to reach pH of 4 • 6. Stir until uniformly distributed in the water, and clear • 7. If pH<4, then go to step 9 • 8. Go to step 4 • 9. Divide remaining portion of DOTA into 5 parts • 10. Add 1 part of remaining DOTA • 11. Stir until uniformly distributed in the water, and clear • 12. If DOTA remains to be added go to step 10 • 13. Continue to cook for a total of 12 hours Results

[2] = Free gadolinium as a function of synthesis time, spectrometric xylenol orange; details: for Free Gd, titrated with meglumine to pH 7.0: after 32 hrs synthesis
Experimental: Once the reference solution is prepared, then product runs can be indexed against this standard. • 23. An improvement over earlier methods involves in-line or batch sample monitoring of metastable intermediate presence. For example, the monitoring can be by Fourier Transform Infrared Spectroscopy, High Performance Liquid Chromatography, Ultra High Performance Liquid Chromatography, or Trans-metalation reaction. The reactant can be titrated with a strong acid (0.1 M HCl) and the free Gd3+ ion quantified by the improved xylenol orange titration according to the present disclosure. The metastable intermediate will release free Gd3+ more quickly than fully complexed Gd-DOTA. The presence of multiple metastable intermediate forms can be detected by dynamic titration over the span of an hour or more, and calculating the Gd3+ ion as a function of time. • 24. In addition, the relative kinetic stability of a Gd-DOTA complex is accessed by exposing the solution to phosphate anions at physiological pH. Even chelates with very high thermodynamic stability constants will equilibrate to form some free chelate and non-chelated gadolinium. Since gadolinium phosphate is insoluble, any non-chelated gadolinium will precipitate as insoluble gadolinium phosphate, and the free Gd3+ ion can be quantified by weighing the precipitate. Verify Complex Formation • 25. Verify absence of free gadolinium using Xylenol orange • 26. If free gadolinium detected, add X DOTA, raise temperature to 95+1-2° C., stir for 1 hr and proceed to step 16 • 27. If not, proceed to step 23 Preparation of Gadoteric Acid Meglumine Solution • 28. Add 90% of the meglumine at 40-45° C. • 29. Sir 10 minutes • 30. Measure pH—in-line probe calibrated to 25° C. (USP) • 31. If pH is >7.5, discard • 32. If pH is between 7.0 and 7.5, then go to step 29 • 33. If pH<than 7.0, add 2% of the Meglumine, go to step 24 • 34. Stir for 1 hr at 40-45° C. • 35. Check solution is clear, if yes proceed to 31, if not repeat 29 Gadoteric Acid Meglumine Solution Filtration • 36. Cool the solution to 20-25° C. • 37. Filter the solution using the carbon filter • 38. Rinse the reactor with 20-25° C. water using ¼ V • 39. Pass rinse through the filter • 40. Repeat rinse steps 33 & 34 for a total of 2 rinses • 41. Place filtrate and rinses back in reactor • 42. Stir at 25-30° C. for 10 min • 43. Measure Free DOTA by HPLC • 44. If Free DOTA is 0.01-0.06% ww proceed to 42 • 45. If Free DOTA<0.01% ww, add 0.03% ww equivalent of DOTA • 46. Stir for ½ hr and go to step 38 • 47. Measure pH—in-line probe calibrated to 25° C. (USP) • 48. If pH is between 7.0 and 7.5, then go to step 45 • 49. If pH<7.0, add meglumine. Stir 10 min. Go to step 42. • 50. Stir ½ hr. • 51. Check solution is clear, if yes proceed to 47, if not repeat 45 Verify Purity • 52. Measure Purity by HPLC • 53. If individual impurity>0.05%, go to step 32 Final API Adjustments • 54. Measure Free DOTA by HPLC • 55. If Free DOTA>0.06% ww, repeat steps 32-42 • 56. If Free DOTA is 0.01-0.06% ww proceed to 55 • 57. If Free DOTA<0.01% ww, add 0.03% ww equivalent of DOTA • 58. Stir ½ hr • 59. Go to Step 49 • 60. Measure pH • 61. If pH is 7.0-7.5, then go to step 53 • 62. If pH<7.0, add Meglumine. Stir 10 min. Go to step 55 Final API Testing • 63. Perform full API testing: Gadolinium content; Meglumine Content; Assay; Water Content; Heavy Metals Free Gadolinium as a Function of Synthesis Time Using the Method of Example 1A.
Free Gadolinium was determined by using the spectrometric xylenol orange technique described in previous studies.
Free Gadolinium as a Function of Synthesis Time Using the Method of Example 1.
Free Gadolinium was determined by using the improved spectrometric xylenol orange technique described in previous studies.

[3] = Effect of solvent (ethanol) on intermediate formation and destabilization of stable complex; details: mixed with 10% v-v ethanol, ethanol evaporated 12 hrs
Experimental: At each time step, samples were mixed with 10% v-v ethanol. The ethanol was driven from the sample by evaporation (heating under vacuum) for 12 hrs. Free Gadolinium was determined by using the spectrometric xylenol orange technique described in previous studies.
At each time step, samples were mixed with 10% v-v ethanol. The ethanol was driven from the sample by evaporation (heating under vacuum) for 12 hrs. Free Gadolinium was determined by using the improved spectrometric xylenol orange technique described in previous studies.

[4] = Metastable intermediates as a function of reaction time
Experimental: • 1. Heat reactor to 25-30° C. • 2. Charge water with DOTA • 3. Begin stirring (stir unless otherwise indicated, nominal rate 300 rpm) • 4. Charge 10% of the DOTA • 5. Stir until uniformly distributed in the water • 6. If all the DOTA is charged, then go to step 8 • 7. Go to step 4 • 8. Stir 10 min Preparation of Gadolinium: DOTA Complex • 9. Charge 25% by weight of the Gadolinium oxide • 10. Stir until uniformly distributed • 11. If all the Gadolinium oxide is charged then go to step 13 • 12. Go to step 9 • 13. Stir 10 min • 14. Raise temperature to 95+/−2° C. • 15. Stir 3 hrs. • 16. Check clarity • 17. If not clear continue for 1 hr, go to step 16 (this step took about 12 hours) • 18. If clear, continue 1 hr and then cool to 40-45° C. • 19. If precipitate forms, heat to 95+/−2° C. and stir for 1 hr, go to step 16 Verify Gd-Dota is Free of Metastable Intermediates • 20. A standard metastable-free Gd-DOTA reference solution is obtained by taking 5 ml of reactant obtained from steps 1-19 and diluting to a 0.2 mM Gd-DOTA solution. One measures the metastable intermediate content after synthesis for 5, 10, 15, 20, 25, 30, and 35 hours, or until the concentration of the metastable intermediate asymptotes as close to zero as possible. • 21. […] The output from a copper vapor laser tuned to 578.2 nm (Oxford Lasers, Didcot, United Kingdom) is directed through the reactant and the excitation spectrum obtained at 578.2 nm. Baseline is established by directing the laser through the quartz vessel filled with distilled water.
Stoichiometric ratios of gadolinium oxide were reacted with DOTA according to the procedure outlined in Example 1. Measurements were taken (N=1) to conserve volume. The final measurement was performed 5 times.

[5] = Feasibility of excess DTPA, free Gd3+ by xylenol orange; details: stoichiometric DTPA, room temperature, 24 hours
Experimental: The metastable intermediate concentration is determined by Example 3, and associated methods described in the present application. A Gd-DOTA synthesis containing metastable intermediates is heated to 95° C. in the presence of a stoichiometric amount of DTPA sufficient to consume all the metastable intermediates. The presence of metastable intermediates can be measured as a function of time. The reaction is continued until a desired metastable intermediate content is obtained. Depending on the amount of free DOTA thus liberated, the free DOTA can be reacted with a positively charged resin, as is known in the art. Alternatively, the free DOTA may serve as a buffer against free Gd3+ formation, as is permitted in some drug formulations. Ten samples were prepared by adding stoichiometric amounts of DTPA to counter the excess Gd3+ and stored at room temperature for 24 hours. Samples were tested using the improved spectrometric xylenol orange method.

[6] = Feasibility of cation exchange (sodium polystyrene sulfonate), free Gd3+ by xylenol orange; details: stoichiometric sodium polystyrene sulfonate, room temperature, N = 5
Experimental: Feasibility of cation exchange as a method of making Gd-DOTA with low metastable intermediates
Using sodium polystyrene sulfonate, rather than the polymer described above.
Ten samples were stored at room temperature with a stoichiometric amount of sodium polystyrene sulfonate.
Samples were tested using the improved spectrometric xylenol orange method.

Compound: O=C([O-])CN1CCN(CC(=O)[O-])CCN(CC(=O)O)CCN(CC(=O)[O-])CC1.[Gd+3] [Batch B, Gd-DOTA]
Free Gd ([1]; synthesis time 4 hrs): 19,276 +/− 6.3 ppm
Free Gd ([1]; synthesis time 8 hrs): 2,793 +/− 7.1 ppm
Free Gd ([1]; synthesis time 12 hrs): 377 +/− 5.2 ppm

Compound: O=C([O-])CN1CCN(CC(=O)[O-])CCN(CC(=O)O)CCN(CC(=O)[O-])CC1.[Gd+3] [Example 1B, Gd-DOTA]
Free Gd, titrated with meglumine to pH 7.0 [2]: 0.77+/−0.92 ppm
Free Gd ([2]; synthesis time 4 hrs): 17,467 +/− 9.4 ppm
Free Gd ([2]; synthesis time 8 hrs): 3,448 +/− 8.9 ppm
Free Gd ([2]; synthesis time 12 hrs): 803 ppm and 803 +/− 8.1 ppm
Free Gd ([2]; synthesis time 16 hrs): 509 +/− 4.2 ppm
Free Gd ([2]; synthesis time 20 hrs): 63.6 +/− 9.7 ppm
Free Gd ([2]; synthesis time 24 hrs): 31.0 +/− 2.1 ppm
Free Gd ([2]; synthesis time 28 hrs): 1.2 +/− 0.72 ppm
Free Gd ([2]; synthesis time 32 hrs): 0.25 +/− 0.67 ppm
Free Gd ([3]; synthesis time 4 hrs): 71,830 ppm
Free Gd ([3]; synthesis time 8 hrs): 7,044 ppm
Free Gd ([3]; synthesis time 12 hrs): 2,146 ppm
Free Gd ([3]; synthesis time 16 hrs): 957 ppm
Free Gd ([3]; synthesis time 20 hrs): 401 ppm
Free Gd ([3]; synthesis time 24 hrs): 147 ppm
Free Gd ([3]; synthesis time 28 hrs): 92 ppm
Free Gd ([3]; synthesis time 32 hrs): 56 (compare to 0.77 without solvents) ppm

Compound: O=C([O-])CN1CCN(CC(=O)[O-])CCN(CC(=O)O)CCN(CC(=O)[O-])CC1.[Gd+3] [Example 5, Gd-DOTA]
Metastable Intermediates ([4]; 3 hours of reaction): 28,094 +/− 9.7 ppm
Metastable Intermediates ([4]; 8 hours of reaction): 3,853 +/− 12.4 ppm
Metastable Intermediates ([4]; 24 hours of reaction): 72 +/− 5.0 ppm
Metastable Intermediates ([4]; 32 hours of reaction): 0.8 +/− 1.3 ppm
Metastable Intermediates after titration with meglumine to pH 7.0 ([4]; after 32 hours of reaction, unit not given): 1.2 +/− 3.8

Compound: O=C([O-])CN1CCN(CC(=O)[O-])CCN(CC(=O)O)CCN(CC(=O)[O-])CC1.[Gd+3] [Example 1A, Gd-DOTA]
Free Gd, titrated with meglumine to pH 7.0 [2]: 0.77+/−0.92 ppm
Free Gd ([2]; synthesis time 4 hrs): 17,467 +/− 9.4 ppm
Free Gd ([2]; synthesis time 8 hrs): 3,448 +/− 8.9 ppm
Free Gd ([2]; synthesis time 12 hrs): 803 ppm and 803 +/− 8.1 ppm
Free Gd ([2]; synthesis time 16 hrs): 509 +/− 4.2 ppm
Free Gd ([2]; synthesis time 20 hrs): 63.6 +/− 9.7 ppm
Free Gd ([2]; synthesis time 24 hrs): 31.0 +/− 2.1 ppm
Free Gd ([2]; synthesis time 28 hrs): 1.2 +/− 0.72 ppm
Free Gd ([2]; synthesis time 32 hrs): 0.25 +/− 0.67 ppm
Free Gd ([3]; synthesis time 4 hrs): 71,830 ppm
Free Gd ([3]; synthesis time 8 hrs): 7,044 ppm
Free Gd ([3]; synthesis time 12 hrs): 2,146 ppm
Free Gd ([3]; synthesis time 16 hrs): 957 ppm
Free Gd ([3]; synthesis time 20 hrs): 401 ppm
Free Gd ([3]; synthesis time 24 hrs): 147 ppm
Free Gd ([3]; synthesis time 28 hrs): 92 ppm
Free Gd ([3]; synthesis time 32 hrs): 56 (compare to 0.77 without solvents) ppm

Gd3+ after samples treated with DTPA, range (upper value, down to undetectable) [5]: ≤ 27.6 ppm
Gd3+ after samples treated with DTPA ([5]; N=5): 14.8+/−11.6 ppm
Compound: Gd-DOTA [Example 7]

Compound: O=C([O-])CN1CCN(CC(=O)[O-])CCN(CC(=O)O)CCN(CC(=O)[O-])CC1.[Gd+3] [Batch A, Gd-DOTA]
Free Gd ([1]; synthesis time 4 hrs): 15,036 +/− 12.8 ppm
Free Gd ([1]; synthesis time 8 hrs): 4,947 +/− 9.9 ppm
Free Gd ([1]; synthesis time 12 hrs): 1,792 +/− 10.5 ppm

Compound: Gd-DOTA [Example 6]
Free Gd3+ after samples treated ([6]; 24 hrs): 685 +/− 9.4
Free Gd3+ after samples treated ([6]; 48 hrs): 292 +/− 15.2
Free Gd3+ after samples treated ([6]; 96 hrs): 8.9 +/− 8.5

— patent publication US12692278B2, “Synthesis methods and compositions of low intermediate and low dichelate intermediate contrast agents” (priority 2021, dated 2026)
